In patent US20180051317A1, “NON-RADIOACTIVE METHOD FOR DETERMINING THE CYTOLITIC ACTIVITY OF AN AGENT WITH RESPECT TO TARGET CELLS, USE THEREOF AND ASSOCIATED KIT” (CLEAN CELLS, priority 2015, published 2018):
Each block holds one molecule with its values, some of them ahead of it.

How the values were obtained:
Assay type in all cases: cell-based
Raji cells = experiment: cell death induced by a pro-apoptotic chemical agent (nanoluciferase release and TO-PRO-3 flow cytometry); details: 48 hours, increasing concentrations; regardless of the method for measuring the mortality
Method: Raji cells transformed to stably express nanoluciferase (50 000 cells per well) are cultured for 48 hours at 37° C. (under a humidified atmosphere containing 5% CO2) in the presence of increasing concentrations of staurosporine, which is a pro-apoptotic drug, in RPMI-1640 medium containing 10% of FCS, and in the presence or absence of 0.2% of triton X-100 (to determine the maximum release). At the end of the incubation, 25 μl of supernatant are recovered from each well, transferred into a white “half-well” plate, mixed with 25 μl of NanoGlo® substrate diluted to 1/50 in D-PBS, incubated for 3 minutes and read on a Mithras LB940 luminometer. The results of the reading are expressed in RLU (relative luminescence units). The percentage of dead cells for each concentration of staurosporine is determined according to the formula (RLU[triton-free medium])/(RLU[0.2% triton])×100.
After removing the supernatant, the remainder of the cells are resuspended, extemporaneously mixed with a final concentration of 0.25 μM of the vital marker TO-PRO-3 (Life Technologies) and acquired on a C6 flow cytometer (BD/Accuri). The percentage of dead cells is determined during the analysis of the cytometry data as the percentage of cells having integrated the TO-PRO-3.
Two identical independent experiments were carried out, the results of which are presented on graphs A and B of FIG. 28. […]

[1] = tested on: CHO cells stably expressing TNF-alpha and nanoluciferase; experiment: anti-TNF-alpha ADCC assay, 51Cr release method; details: mean±SD of 3 experiments
Method: (§1) The nanoluciferase method was compared to the ^51Cr method in an anti-TNF-alpha ADCC assay. For this, the CHO cells described in example 7, stably expressing TNF-alpha and nanoluciferase, were used, as was a standard range of adalimumab and of variations at 80% and 125% of this range. Three independent experiments were carried out, according to the same methodology as in the previous examples.

[2] = tested on: CHO cells stably expressing human TNF-alpha in its membraned form; experiment: anti-TNF-alpha CDC assay, nanoluciferase release method; details: for mean potency: mean±SD
Method: (§2) The method for measuring nanoluciferase release was compared to the chromium method in a third model, that of the anti-TNF-alpha antibody adalimumab (Humira®). The present example illustrates the implementation thereof in an assay for measuring the CDC activity. For this, CHO cells pretransformed and selected to stably express human TNF-alpha in its membraned form were transformed to stably express nanoluciferase. […] Briefly, these cells, labeled or not labeled with ^51Cr, were incubated in the presence of increasing concentrations of adalimumab (Humira®) and of a source of complement (from guinea pig (Sigma)). The specific lysis was then measured by the appropriate method (chromium release or nanoluciferase release).
(§3) The percentage of specific lysis obtained for each concentration X is calculated in the same way for the two types of methods, on the basis of the measurements of radioactivity (in CCPM) or of luminescence (in RLU) according to the formula
(§4) The percentages of specific lysis are represented along the y-axis, each point (black circle for nanoluciferase and white squares for ^51Cr) representing the mean of the nine determinations (3 replicates in 3 independent experiments) and the vertical bars representing the standard deviations. The data were modeled by means of a 4-parameter sigmoidal regression using the GraphPad Prism software.

[3] = tested on: CHO cells stably expressing human TNF-alpha in its membraned form; experiment: anti-TNF-alpha CDC assay, 51Cr release method; details: for mean potency: mean±SD
Method: as §2, §3, §4

[4] = tested on: CHO cells stably expressing TNF-alpha and nanoluciferase; experiment: anti-TNF-alpha ADCC assay, nanoluciferase release method; details: mean±SD of 3 experiments
Method: as §1

Raji target cells [5] = experiment: anti-CD20 ADCC assay, nanoluciferase release method
Method: (§5) The same Raji cells expressing nanoluciferase were or were not labeled with ^51Cr and were used in parallel in the assay.
(§6) Raji target cells transformed to stably express nanoluciferase were incubated or not incubated for 1 hour in a saline solution of Na2CrO4 equivalent to 100 μCi of ^51Cr per million cells, then washed 4 times with RPMI-1640, 10% FCS, and counted. The cells (3000 per well), labeled or not labeled with ^51Cr, were then incubated at 37° C. in a humidified atmosphere at 5% CO2 in flat-bottomed 96-well plates treated for cell culture, in the presence of increasing concentrations of the rituximab antibody (MabThera®) and of cytotoxic effector cells (T lymphocytes expressing CD16, 30 000 cells per well) in RPMI-1640 supplemented with 5% of FCS.
(§7) After 4 hours of incubation, the percentage of specific lysis is measured according to the corresponding method (release of ^51Cr or of nanoluciferase depending on whether the cells have or have not been labeled with chromium): 25 μl of supernatant of the ^51Cr-labeled cells are recovered and deposited on a Lumaplate® (Perkin Elmer). At the same time, for the cells not labeled with ^51Cr, 25 μl of supernatant are recovered from each well, transferred into white “half-well” 96-well plates, mixed with 25 μl of NanoGlo® substrate diluted to 1/50 in D-PBS, incubated for 3 minutes and read on a Mithras LB940 luminometer (Berthold Technologies). After drying overnight, the radioactivity of the supernatants deposited in the Lumaplate® is measured in a Microbeta-Jet counter (Perkin Elmer) and expressed in CCPM (corrected count per minute) after standardization of the detectors.
(§8) The percentage of specific lysis obtained for each concentration X is calculated in the same way for the two types of methods, from the measurements of radioactivity (in CCPM) or of luminescence (in RLU) according to the formula
as §4, with “represented in FIG. 9” for “represented”, “point” for “point (black circle for nanoluciferase and white squares for ^51Cr)”
(§9) This approach also makes it possible to evaluate the accuracy of the method according to the ICH-Q2(R1) criteria.

Raji target cells [6] = experiment: anti-CD20 CDC assay, nanoluciferase release method
Method: as §6, §7, §8
as §4, with “represented in FIG. 9” for “represented”, “point” for “point (black circle for nanoluciferase and white squares for ^51Cr)”
as §9
(§10) Using the same type of target cells as that of example 4, the nanoluciferase method was compared to the ^51Cr method in an anti-CD20 CDC assay. The methodology applied was the same as that described in example 4, the cytolytic system being formed by a source of complement. In the same way, a standard range of antibody (rituximab) was used, and also 80% and 125% modified concentration ranges. Three independent experiments were carried out, one of which was carried out by a second operator.

Raji target cells [7] = experiment: anti-CD20 CDC assay, 51Cr release method
Method: as §6, §7, §8
as §4, with “represented in FIG. 9” for “represented”, “point” for “point (black circle for nanoluciferase and white squares for ^51Cr)”
as §9, §10

Raji target cells [8] = experiment: anti-CD20 ADCC assay, 51Cr release method
Method: as §5, §6, §7, §8
as §4, with “represented in FIG. 9” for “represented”, “point” for “point (black circle for nanoluciferase and white squares for ^51Cr)”
as §9

[9] = guinea pig complement, mean±SD over the whole of the ranges in the 3 experiments
[10] = 51Cr, guinea pig complement, mean±SD over the whole of the ranges in the 3 experiments
[11] = 80% range, mean±SD of 3 experiments
[12] = 125% range, mean±SD of 3 experiments
[13] = mean±SD of 3 experiments, 100% range
[14] = mean±SD, 80%, 100% and 125% ranges, 3 experiments, 4 h, CD16 T lymphocyte effectors
[15] = 100% range, mean±SD of 3 experiments
[16] = complement source, mean±SD, all of the 80%, 100% and 125% ranges

Molecule: CN[C@@H]1C[C@H]2O[C@@](C)([C@@H]1OC)n1c3ccccc3c3c4c(c5c6ccccc6n2c5c31)C(=O)NC4 [staurosporine]
mortality of the target cells (Raji cells): proportional relationship between the concentration of staurosporine and the mortality of the target cells

Molecule: adalimumab
mean potency ([1]; 80% range): 91.4±43.3% | mean potency ([1]; 125% range): 138.5±43.9% | mean potency ([2]; 80% range): 83.4±10.1% | mean potency ([2]; 125% range): 131.7±47.2% | Emax [2, 9]: 45.7±5.1% | Emin [2, 9]: 0.9±1.5% | EC50 ([2]; standard ranges, mean±SD of 3 experiments): 0.1569 ± 0.0234 µg/mL | mean potency ([3]; 51Cr, 80% range): 91.2±23.6% | mean potency ([3]; 51Cr, 125% range): 153.9±29.2% | Emax [3, 10]: 50.4±5.6% | Emin [3, 10]: 3.2±2.8% | EC50 ([3]; chromium, standard ranges, mean±SD of 3 experiments): 0.1508 ± 0.015 µg/mL | mean potency ([4]; 80% range): 75.5±15.5% | mean potency ([4]; 125% range): 114.2±22.8%

potency (EC50[100%]/EC50[X%]×100) (Raji target cells [5]; [11]): 83.6±22% | potency (EC50[100%]/EC50[X%]×100) (Raji target cells [5]; [12]): 119.5±22.7% | EC50 (Raji target cells [5]; [13]): 0.0318 ± 0.0073 µg/mL | EC50 (Raji target cells [6]; [15]): 0.0731 ± 0.0099 µg/mL | EC50 (Raji target cells [7]; [15]): 0.1567 ± 0.0301 µg/mL | potency (EC50[100%]/EC50[X%]×100) (Raji target cells [8]; [11]): 76.7±10% | potency (EC50[100%]/EC50[X%]×100) (Raji target cells [8]; [12]): 131.9±11.9% | EC50 (Raji target cells [8]; [13]): 0.0552 ± 0.0156 µg/mL
Molecule: rituximab
Emax (maximum lysis percentage) (Raji target cells [5]; [14]): 73.6±8.4% | Emin (minimum lysis percentage) (Raji target cells [5]; [14]): 1.2±1.2% | potency (Raji target cells [6]; 80% range, mean±SD): 65.0±12.9% | potency (Raji target cells [6]; 125% range, mean±SD): 105.8±8.2% | Emax (Raji target cells [6]; [16]): 95.6±7.0% | Emin (Raji target cells [6]; [16]): −0.3±3.2% | potency (Raji target cells [7]; 80% range, mean±SD): 69.6±12.3% | potency (Raji target cells [7]; 125% range, mean±SD): 131.5±16.4% | Emax (Raji target cells [7]; [16]): 88.6±7.8% | Emin (Raji target cells [7]; [16]): 3.0±3.4% | Emax (maximum lysis percentage) (Raji target cells [8]; [14]): 75.7±6.0% | Emin (minimum lysis percentage) (Raji target cells [8]; [14]): 1.0±1.5%
